Where a name gives a salt, the structure may show the parent alone.

The first test addresses T1, hGPR119 (Homo sapiens, UniProt Q8TDV5).
T1 construct: expressed in transfected cells; host or cells: CHO cells (CHO-hGPR119)
T1 sequence (Q8TDV5 1-335): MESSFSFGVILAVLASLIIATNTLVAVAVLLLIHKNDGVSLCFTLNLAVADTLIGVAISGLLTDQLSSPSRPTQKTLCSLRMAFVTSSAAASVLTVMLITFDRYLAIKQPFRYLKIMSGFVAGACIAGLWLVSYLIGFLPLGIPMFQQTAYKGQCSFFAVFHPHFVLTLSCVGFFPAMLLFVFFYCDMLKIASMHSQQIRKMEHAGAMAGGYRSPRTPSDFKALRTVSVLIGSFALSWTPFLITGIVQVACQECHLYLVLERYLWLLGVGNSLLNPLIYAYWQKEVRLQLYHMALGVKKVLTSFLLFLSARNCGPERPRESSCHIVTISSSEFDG
The experiment in a line: In vitro cyclic AMP assay (Cisbio HTRF) in CHO-hGPR119 cells. Particulars: 1 h, cAMP, 1 μM, 60 min, read-out: Induction (% induction at 1 μM). The test is classed as cell-based. As for the experimental part:
cAMP measurements were done using Cisbio dynamic 2 HTRF kit according to the manufacturer's protocol. Briefly, CHO-hGPR119 cells were plated at a cell density of 5000 cells/well/5 μl into a white small volume 384 well plate. The final concentrations of IBMX and DMSO used were 1 mM and 0.5% respectively. Cells were treated with various concentrations of the test compound for 60 min at room temperature. Cells were lysed by buffer containing Anti-cAMP antibody and d2-cAMP reagents and incubated for 1 hour at room temperature. HTRF was measured at 337 nm excitation and emission wavelengths of 665 nm and 620 nm on a microplate reader (Flurostar, BMG Labtech). Graphpad prism software was utilized for EC50 determinations.
Background: In TR-FRET formats the signal depends on donor and acceptor labels being close together.
As for `COc1cnccc1-c1cn2nc(OC(C)C3CCN(c4nc(C(C)C)no4)CC3)sc2n1` (centres unmarked) [Compound 1095, 2-(1-(1-(3-isopropyl-1,2,4-oxadiazol-5-yl)piperidin-4-yl)ethoxy)-6-(3-methoxypyridin-4-yl)imidazo[2,1-b][1,3,4]thiadiazole], the activation at 1 µM worked out at 8%.
Turning to `CC(C)c1noc(N2CCC([C@@H](C)Oc3nn4cc(-c5ccc(S(C)(=O)=O)nc5)nc4s3)CC2)n1` [Compound 1058, (R)-3-isopropyl-5-(4-(1-((6-(6-(methylsulfonyl)pyridin-3-yl)imidazo[2,1-b][1,3,4]thiadiazol-2-yl)oxy)ethyl)piperidin-1-yl)-1,2,4-oxadiazole], the activation at 1 µM is 73%.
Take `CC(C)c1noc(N2CCC(C(C)Oc3nn4cc(-c5cnc(Cl)cn5)nc4s3)CC2)n1` (centres unmarked) [Compound 1079, 2-(1-(1-(3-isopropyl-1,2,4-oxadiazol-5-yl)piperidin-4-yl)ethoxy)-6-(5-chloropyrazin-2-yl)imidazo[2,1-b][1,3,4]thiadiazole]: the activation at 1 µM was determined as 87%.
Take `CCc1cnc(N2CCC(C(C)Oc3nn4cc(-c5ccncc5)nc4s3)CC2)nc1` (stereo in doubt) [Compound 1080, 2-((S)-1-(1-(5-ethylpyrimidin-2-yl)piperidin-4-yl)ethoxy)-6-(pyridin-4-yl)imidazo[2,1-b][1,3,4]thiadiazole]: the activation at 1 µM amounted to 74%.
The same measure, in the same setting: the result for `Cc1nc(S(C)(=O)=O)ccc1-c1cn2nc(O[C@@H](C)C3CCN(c4nc(C(C)C)no4)CC3)sc2n1` [Compound 1104, 2-((S)-1-(1-(3-isopropyl-1,2,4-oxadiazol-5-yl)piperidin-4-yl)ethoxy)-6-(2-methyl-6-(methylsulfonyl)pyridin-3-yl)imidazo[2,1-b][1,3,4]thiadiazole] reads 46%.
For `CC(C)c1noc(N2CCC(C(C)Oc3nn4cc(-c5cncs5)nc4s3)CC2)n1` (centres unmarked) [Compound 1111, 2-(1-(1-(3-isopropyl-1,2,4-oxadiazol-5-yl)piperidin-4-yl)ethoxy)-6-(thiazol-5-yl)imidazo[2,1-b][1,3,4]thiadiazole], the activation at 1 µM was found to be 63%.
On the same count and under the same terms, the result for `CC(C)c1noc(N2CCC(C(C)Oc3nn4cc(-c5ccncc5C(F)(F)F)nc4s3)CC2)n1` (centres unmarked) [Compound 1092, 2-(1-(1-(3-isopropyl-1,2,4-oxadiazol-5-yl)piperidin-4-yl)ethoxy)-6-(3-(trifluoromethyl)pyridin-4-yl)imidazo[2,1-b][1,3,4]thiadiazole] reads 25%; that for `CC(C)c1noc(N2CCC(N(C)c3nn4cc(-c5ccc(S(C)(=O)=O)cc5)nc4s3)CC2)n1` [Compound 1029, N-(1-(3-isopropyl-1,2,4-oxadiazol-5-yl)piperidin-4-yl)-N-methyl-6-(4-(methylsulfonyl)phenyl)imidazo[2,1-b][1,3,4]thiadiazol-2-amine], 9%.
The same measure, in the same setting: the result for `CCCc1cnc(N2CCC(C(C)Oc3nn4cc(-c5ccc(C(=O)N(C)C)cc5)nc4s3)CC2)nc1` (centres unmarked) [Compound 1049, N,N-dimethyl-4-(2-(1-(1-(5-propylpyrimidin-2-yl)piperidin-4-yl)ethoxy)imidazo[2,1-b][1,3,4]thiadiazol-6-yl)benzamide] reads 55%.
The same measure, in the same setting: the figure for `CC(Oc1nn2cc(-c3ccc(S(C)(=O)=O)cc3)nc2s1)C1CCN(c2ncc(Cl)cn2)CC1` (centres unmarked) [Compound 1069, 2-(1-(1-(5-chloropyrimidin-2-yl)piperidin-4-yl)ethoxy)-6-(4-(methylsulfonyl)phenyl)imidazo[2,1-b][1,3,4]thiadiazole] is 65%.
For the molecule `CC(C)c1noc(N2CCC(COc3nn4cc(-c5ccncc5)nc4s3)CC2)n1` [Compound 1054, 3-isopropyl-5-(4-(((6-(pyridin-4-yl)imidazo[2,1-b][1,3,4]thiadiazol-2-yl)oxy)methyl)piperidin-1-yl)-1,2,4-oxadiazole], the activation at 1 µM was found to be 16%.
As for `CC(C)c1noc(N2CCC(COc3nsc(-c4ccc(S(C)(=O)=O)nc4)n3)CC2)n1` [Compound 1120, 5-(3-((1-(3-isopropyl-1,2,4-oxadiazol-5-yl)piperidin-4-yl)methoxy)-1,2,4-thiadiazol-5-yl)-2-(methylsulfonyl)pyridine], the activation at 1 µM came to 15%.
For `CCc1cnc(N2CC=C(c3nsnc3Oc3ccc(-n4cnnn4)cc3)CC2)nc1` [Compound 1005, 3-(4-(1H-tetrazol-1-yl)phenoxy)-4-(1-(5-ethylpyrimidin-2-yl)-1,2,3,6-tetrahydropyridin-4-yl)-1,2,5-thiadiazole], the activation at 1 µM was 2%.
Same read-out and setting: the result for `CC(C)c1noc(N2CCC([C@@H](C)Oc3nn4cc(-c5ccc(-c6nnn[nH]6)cc5F)nc4s3)CC2)n1` [Compound 1105, 2-((R)-1-(1-(3-isopropyl-1,2,4-oxadiazol-5-yl)piperidin-4-yl)ethoxy)-6-(2-fluoro-4-(1H-tetrazol-5-yl)phenyl)imidazo[2,1-b][1,3,4]thiadiazole hydrochloride] reads 30%.
Take `CC(C)c1noc(N2CCC(Oc3nc(N(C)c4ccc(S(C)(=O)=O)nc4)ns3)CC2)n1` [Compound 1124, N-(5-(1-(3-isopropyl-1,2,4-oxadiazol-5-yl)piperidin-4-yloxy)-1,2,4-thiadiazol-3-yl)-N-methyl-6-(methylsulfonyl)pyridin-3-amine]: the activation at 1 µM was 6%.
For `CC(C)c1noc(N2CCC(C(C)Oc3nn4cc(-c5ccc(Cl)nc5)nc4s3)CC2)n1` (centres unmarked) [Compound 1075, 2-(1-(1-(3-isopropyl-1,2,4-oxadiazol-5-yl)piperidin-4-yl)ethoxy)-6-(6-chloropyridin-3-yl)imidazo[2,1-b][1,3,4]thiadiazole], the activation at 1 µM was 64%.
Still for that read-out and setting: the result for `CC(C)c1noc(N2CCC(COc3nsnc3OCC3CCN(c4nc(C(C)C)no4)CC3)CC2)n1` [Compound 1011, 3,4-bis((1-(3-isopropyl-1,2,4-oxadiazol-5-yl)piperidin-4-yl)methoxy)-1,2,5-thiadiazole] reads 2%; that for `CC(C)c1noc(N2CCC(c3nn4cc(-c5ccc(S(C)(=O)=O)cc5)nc4s3)CC2)n1` [Compound 1027, 3-isopropyl-5-(4-(6-(4-(methylsulfonyl)phenyl)imidazo[2,1-b][1,3,4]thiadiazol-2-yl)piperidin-1-yl)-1,2,4-oxadiazole], 41%; that for `CS(=O)(=O)c1ccc(-c2cn3nc(C4CCN(Cc5ccccc5)CC4)sc3n2)cc1` [Compound 1019, 2-(1-benzylpiperidin-4-yl)-6-(4-(methylsulfonyl)phenyl)imidazo[2,1-b][1,3,4]thiadiazole], 11%.
Still for that read-out and setting: the figure for `CCCc1cnc(N2CCC([C@H](C)Oc3nn4cc(-c5ccnc(OC)c5)nc4s3)CC2)nc1` [Compound 1094, 2-((S)-1-(1-(5-propylpyrimidin-2-yl)piperidin-4-yl)ethoxy)-6-(2-methoxypyridin-4-yl)imidazo[2,1-b][1,3,4]thiadiazole] is 68%; for `CC(C)OC(=O)N1CCC(c2nn3cc(-c4ccc(S(C)(=O)=O)cc4)nc3s2)CC1` [Compound 1024, isopropyl 4-(6-(4-(methylsulfonyl)phenyl)imidazo[2,1-b][1,3,4]thiadiazol-2-yl)piperidine-1-carboxylate] it is 38%.

Still in this test, the particulars now being: cAMP, class symbols, legend not given.
As for `CC(C)c1noc(N2CCC([C@@H](C)Oc3nn4cc(-c5ccc(S(C)(=O)=O)nc5)nc4s3)CC2)n1` [Compound 1058, (R)-3-isopropyl-5-(4-(1-((6-(6-(methylsulfonyl)pyridin-3-yl)imidazo[2,1-b][1,3,4]thiadiazol-2-yl)oxy)ethyl)piperidin-1-yl)-1,2,4-oxadiazole], the EC50 result is “A+”.
The same measure, in the same setting: the entry for `CC(Oc1nn2cc(-c3ccc(S(C)(=O)=O)cc3)nc2s1)C1CCN(c2ncc(Cl)cn2)CC1` (centres unmarked) [Compound 1069, 2-(1-(1-(5-chloropyrimidin-2-yl)piperidin-4-yl)ethoxy)-6-(4-(methylsulfonyl)phenyl)imidazo[2,1-b][1,3,4]thiadiazole] is “A+”.

Values taken from US10208030B2, “GPR119 agonist compounds” (Mankind Pharma Ltd., priority 2016, dated 2019).
